# Measured values taken from patent US11098055B2, “Ester ACC inhibitors and uses thereof” (Gilead Apollo, LLC, priority 2015, dated 2021).
# Like-named read-outs stand apart in the source and are kept apart here.
# Key:
# ACC2 = conditions: enzyme isolated from rat, mouse, monkey and human; cited from earlier work
# ACC1 = conditions: enzyme isolated from rat, mouse, monkey and human; cited from earlier work
# fACC2 = fACC2 (UniProt Q00955); assay: In vitro ACC2 inhibition assay (ADP-Glo), fungal ACC2; assay type: biochemical
# Description: (§1) An exemplary procedure for the in vitro ACC inhibition assay, which can be used to determine the inhibitory action of compounds of the invention toward either human (hACC2) or fungal (fACC2) ACC2, follows. The ADP-Glo™ Kinase Assay kit from Promega was used. The ADP-Glo™ Kinase Assay is a luminescent ADP detection assay to measure enzymatic activity by quantifying the amount of ADP produced during an enzyme reaction. The assay is performed in two steps; first, after the enzyme reaction, an equal volume of ADP-Glo™ Reagent is added to terminate the reaction and deplete the remaining ATP. Second, the Kinase Detection Reagent is added to simultaneously convert ADP to ATP and allow the newly synthesized ATP to be measured using a luciferase/luciferin reaction. Luminescence can be correlated to ADP concentrations by using an ATP-to-ADP conversion curve. The detailed procedure is as follows. 50 μL of the compound being tested (600 μM in DMSO) was added to a 384-well dilution plate. The compound was diluted 1:3 in succession in DMSO for each row for 11 wells. 0.5 μL ACC2 working solution was added to 384-well white Optiplate assay plate. 0.5 μL diluted compound solution in each column from step 2 was added to assay plate, each row containing 2 replicates. For the last 2 rows, 0.5 μL negative control (DMSO) was added in one row and 0.5 μL positive control (compound I-97) in the other. The plates were incubated at room temperature for 15 minutes. 5 μL substrate working solution was added to each well to initiate reaction. Final ACC2 reaction concentrations consist of: 5 nM ACC2, 20 μM ATP, 20 μM acetyl-CoA, 12 mM NaHCO3, 0.01% Brij35, 2 mM DTT, 5% DMSO, test compound concentrations: 30 μM, 10 μM, 3.33 μM, 1.11 μM, 0.37 μM, 0.123 μM, 0.0411 μM, 0.0137 μM, 0.00457 μM, 0.00152 μM, and 0.00051 μM. Plates were incubated at room temperature for 60 minutes. 10 μL ADP glo reagent was added. Plates were incubated at room temperature for 40 minutes. 20 μL kinase detection reagent was added. Plates were incubated at room temperature for 40 minutes, and then read on a Perkin Elmer EnVision 2104 plate reader for luminescence as Relative Light Units (RLU).
# (§2) Data for each concentration, as well as the positive and negative controls, were averaged, and the standard deviation calculated. Percent inhibition was calculated by the formula: 100×(average negative control−compound)/(average negative control−average positive control). The IC50 for each compound was calculated by fitting the data with a non-linear regression equation: Y=Bottom+(Top−Bottom)/(1+10^((Log IC50−X)*HillSlope)), where X is the log of compound concentration and Y is percent inhibition.
# hACC2 = hACC2 (Homo sapiens, UniProt O00763); assay: In vitro ACC2 inhibition assay (ADP-Glo), human ACC2; assay type: biochemical
# Description: as §1, §2
# C. albicans ATCC 90028 = assay: Anti-Fungal (Candida) Activity Assay, broth microtiter MIC; assay type: cell-based; conditions: ATCC90028, 48 h, 3 replicates, MIC read at 48 h
# Description: (§3) Compounds of the present invention were evaluated in an Anti-Fungal Activity Assay. An exemplary procedure for the assay, which measures the susceptibility of various Candida species to anti-fungal compounds, follows. Compounds to be tested (including fluconazole and amphotericin B) were dissolved in DMSO to obtain a solution having a concentration of 1 mg/mL. These stock solutions were sterile filtered using a 0.22 um nylon syringe filter, then diluted in sterile water to achieve a final concentration of 128 μg/mL.
# (§4) All species were grown from frozen stock by directly plating on to freshly prepared Sabouraud Dextrose agar (BD, Difco) and incubated overnight in ambient air at 35° C. for 24 h. A direct suspension was prepared in RPMI 1640+MOPS (Lonza, Biowhittaker) by taking individual colonies from the overnight cultures using sterile swabs soaked in sterile saline. The concentration of the suspension was determined using pre-determined standard curves. These suspensions were then diluted down to 5×10^3 CFU/mL to achieve a final concentration of 2.5×10^3 CFU/mL once added to the microtiter plate as per CLSI guidelines (M27-A3, Vol. 28 No. 14).
# (§5) Broth microtiter MIC challenge plates were prepared following CLSI guidelines (M27-A3, Vol. 28 No. 14). The original CLSI guidelines focused on reading Candida MICs after 48 h of incubation. As reading after only 24 h offers a clear advantage of patient care, QC limits are being established for all drugs at 24 h. That being said there are no known interpretive breakpoints for amphotericin B at 24 h and the current fluconazole interpretive breakpoints are based on a 48 h reading. The MIC for the test compounds were recorded at 48 h. All MIC determinations were achieved by visually comparing the growth found in the antibiotic challenged wells to that of the growth control.
# [1] = system: C. parapsilosis ATCC 22019; assay: as above; assay type: cell-based; conditions: Lodderomyces parapsilosis, ATCC22019, 48 h, 3 replicates, MIC read at 48 h
# Description: as §3, §4, §5
# C. krusei ATCC 6258 = assay: as above; assay type: cell-based, Candida krusei; conditions: Pichia kudriavzevii, ATCC6258, 48 h, 3 replicates, MIC read at 48 h
# Description: as §3, §4, §5
# [2] = system: Fusarium moniliforme (Fm); assay: Growth inhibition assay of fungal pathogens; assay type: cell-based; conditions: Fusarium verticillioides, 48 h, read-out: Concentration at 90% Inhibition Fm
# Description: (§6) Compounds of the present invention were evaluated in a growth inhibition assay to determine the ability to control the growth of fungal pathogens, such as Botrtyis cinerea (Bc), Collectotrichum graminicola (Cg), Diplodia maydis (Dm), Fusarium moniliforme (Fm), Fusarium virguhforme (Fv), Phytophthora capsici (Pc), Rhizoctonia solani (Rs), and Septoria tritici (St). Compounds to be tested were dissolved in DMSO at 2.5 mg/ml to produce compound stock solutions (“stocks”). Stocks were diluted with DMSO by a five-fold dilution in a 96-well stock plate, and two sets of final concentrations of 50, 10, and 2 ppm or 2, 0.4, and 0.08 ppm were obtained in vitro. A set of positive controls was also prepared, with various concentrations of Soraphen (2, 0.4, and 0.08 ppm), Metalaxyl (1.1, 0.22, and 0.04 ppm), and Metconazole (2, 0.4, and 0.08 ppm or 0.2, 0.04, and 0.008 ppm) after the five-fold dilutions. Negative controls on each plate included 2% DMSO, water, and a blank (media+2% DMSO). Fungal spores were isolated from previously sub-cultured plates of Botrtyis cinerea (Bc), Collectotrichum graminicola (Cg), Diplodia maydis (Dm), Fusarium moniliforme (Fm), Fusarium virguliforme (Fv), Phytophthora capsici (Pc), and Septoria tritici (St). The isolated spores were diluted to individual concentrations with a 17% V8 liquid media. For Rhizoctonia solani (Rs) and Pythium irregulare, 1.5 mm mycelial plugs were used in place of spores and ¼ Potato Dextrose Broth (PDB) was used for dilution. The spore concentrations and plug sizes were based on growth curves generated at 48 hours for each pathogen. In a second 96-well plate, the spores or mycelial plugs, media, diluted compound solutions, and controls were combined. Once the compound was added, a true final concentration of compound in each well was measured by an OD600 reading, which adjusted for any compound precipitation that might have occurred in the well. Plate readings were repeated at both 24 and 48 hours. The blank negative control was used as a background subtraction. Additional visual ratings were performed at both 24 and 48 hours for checking on precipitation and confirming efficacy. Visual and OD600 ratings of the compounds at 48 hours were compared to the 2% DMSO negative control, and the percent of pathogen growth inhibition was determined based on those values.
# [3] = system: Fusarium virguliforme (Fv); assay: Growth inhibition assay of fungal pathogens; assay type: cell-based; conditions: 48 h, Table 4b, read-out: Concentration at 90% Inhibition Fv
# Description: as §6
# Rhizoctonia solani (Rs) = assay: Growth inhibition assay of fungal pathogens; assay type: cell-based; conditions: 48 h, Table 4b, read-out: Concentration at 90% Inhibition Rs
# Description: as §6
# Diplodia maydis (Dm) = assay: Growth inhibition assay of fungal pathogens; assay type: cell-based; conditions: Stenocarpella maydis, 48 h, Table 4b, read-out: Concentration at 90% Inhibition Dm
# Description: as §6
# [4] = system: Collectotrichum graminicola (Cg); assay: Growth inhibition assay of fungal pathogens; assay type: cell-based; conditions: 48 h, Table 4b, read-out: Concentration at 90% Inhibition Cg
# Description: as §6
# Botrtyis cinerea (Bc) = assay: Growth inhibition assay of fungal pathogens; assay type: cell-based; conditions: 48 h, Table 4b, read-out: Concentration at 90% Inhibition Bc
# Description: as §6
# [5] = system: Phytophthora capsici (Pc); assay: Growth inhibition assay of fungal pathogens; assay type: cell-based; conditions: 48 h, Table 4b, read-out: Concentration at 90% Inhibition Pc
# Description: as §6
# Septoria tritici (St) = assay: Growth inhibition assay of fungal pathogens; assay type: cell-based; conditions: Zymoseptoria tritici, 48 h, Table 4b, read-out: Concentration at 90% Inhibition St
# Description: as §6
# Chain of fACC2 (Q00955 whole entry): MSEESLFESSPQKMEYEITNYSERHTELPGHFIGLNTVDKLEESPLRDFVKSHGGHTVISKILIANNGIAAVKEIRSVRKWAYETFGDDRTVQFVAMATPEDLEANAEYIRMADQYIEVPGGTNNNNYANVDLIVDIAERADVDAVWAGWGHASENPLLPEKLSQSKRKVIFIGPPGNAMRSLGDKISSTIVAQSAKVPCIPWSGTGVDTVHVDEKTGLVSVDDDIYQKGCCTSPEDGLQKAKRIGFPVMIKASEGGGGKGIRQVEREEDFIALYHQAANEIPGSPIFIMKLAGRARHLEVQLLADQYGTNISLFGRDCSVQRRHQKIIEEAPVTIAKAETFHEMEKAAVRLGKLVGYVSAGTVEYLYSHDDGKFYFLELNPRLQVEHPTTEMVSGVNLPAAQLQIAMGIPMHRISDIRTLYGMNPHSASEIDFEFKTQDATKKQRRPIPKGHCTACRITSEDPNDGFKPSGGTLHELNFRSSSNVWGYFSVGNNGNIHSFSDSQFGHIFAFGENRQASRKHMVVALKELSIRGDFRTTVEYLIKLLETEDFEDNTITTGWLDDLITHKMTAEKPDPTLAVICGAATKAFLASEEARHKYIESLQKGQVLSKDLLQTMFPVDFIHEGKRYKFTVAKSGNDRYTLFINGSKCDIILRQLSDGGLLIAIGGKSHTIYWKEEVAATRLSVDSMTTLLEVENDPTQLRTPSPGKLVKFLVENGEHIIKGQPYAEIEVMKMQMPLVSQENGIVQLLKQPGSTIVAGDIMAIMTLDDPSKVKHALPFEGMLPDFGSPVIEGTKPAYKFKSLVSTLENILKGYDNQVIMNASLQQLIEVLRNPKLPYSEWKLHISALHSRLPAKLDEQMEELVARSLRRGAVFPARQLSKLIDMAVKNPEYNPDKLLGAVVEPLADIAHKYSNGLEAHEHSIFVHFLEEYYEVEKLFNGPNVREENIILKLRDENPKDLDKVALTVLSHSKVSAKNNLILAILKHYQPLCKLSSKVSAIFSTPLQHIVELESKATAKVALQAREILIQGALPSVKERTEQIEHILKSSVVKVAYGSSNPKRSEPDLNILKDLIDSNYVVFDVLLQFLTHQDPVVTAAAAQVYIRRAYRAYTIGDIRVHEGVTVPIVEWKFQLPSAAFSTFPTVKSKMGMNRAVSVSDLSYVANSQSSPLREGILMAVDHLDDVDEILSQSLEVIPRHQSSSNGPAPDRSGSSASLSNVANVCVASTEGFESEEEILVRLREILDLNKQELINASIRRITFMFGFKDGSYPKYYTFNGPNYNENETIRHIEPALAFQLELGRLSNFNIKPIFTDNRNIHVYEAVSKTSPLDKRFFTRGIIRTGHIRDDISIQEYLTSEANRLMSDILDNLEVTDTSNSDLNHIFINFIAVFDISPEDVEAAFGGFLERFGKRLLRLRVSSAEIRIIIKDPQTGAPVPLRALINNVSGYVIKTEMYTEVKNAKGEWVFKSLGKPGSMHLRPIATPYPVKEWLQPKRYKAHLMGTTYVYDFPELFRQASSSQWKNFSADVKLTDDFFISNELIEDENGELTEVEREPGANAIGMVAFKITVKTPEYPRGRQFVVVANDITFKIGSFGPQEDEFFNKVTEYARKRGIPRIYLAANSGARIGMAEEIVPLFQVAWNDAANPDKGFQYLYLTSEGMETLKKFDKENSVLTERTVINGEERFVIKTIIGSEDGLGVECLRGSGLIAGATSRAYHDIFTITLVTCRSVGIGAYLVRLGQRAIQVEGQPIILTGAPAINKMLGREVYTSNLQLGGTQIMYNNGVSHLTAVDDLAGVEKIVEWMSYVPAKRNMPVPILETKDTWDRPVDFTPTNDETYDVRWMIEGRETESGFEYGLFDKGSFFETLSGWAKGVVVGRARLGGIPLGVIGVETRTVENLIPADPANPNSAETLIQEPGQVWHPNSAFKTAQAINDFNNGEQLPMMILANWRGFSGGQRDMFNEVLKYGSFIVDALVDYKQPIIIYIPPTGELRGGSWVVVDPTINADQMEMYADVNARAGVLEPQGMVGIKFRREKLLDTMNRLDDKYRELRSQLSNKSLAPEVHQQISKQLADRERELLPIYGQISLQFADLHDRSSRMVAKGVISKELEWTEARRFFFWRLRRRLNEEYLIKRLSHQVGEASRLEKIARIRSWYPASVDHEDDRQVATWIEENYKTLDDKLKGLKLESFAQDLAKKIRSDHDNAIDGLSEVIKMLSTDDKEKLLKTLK
# Chain of hACC2 (O00763 whole entry): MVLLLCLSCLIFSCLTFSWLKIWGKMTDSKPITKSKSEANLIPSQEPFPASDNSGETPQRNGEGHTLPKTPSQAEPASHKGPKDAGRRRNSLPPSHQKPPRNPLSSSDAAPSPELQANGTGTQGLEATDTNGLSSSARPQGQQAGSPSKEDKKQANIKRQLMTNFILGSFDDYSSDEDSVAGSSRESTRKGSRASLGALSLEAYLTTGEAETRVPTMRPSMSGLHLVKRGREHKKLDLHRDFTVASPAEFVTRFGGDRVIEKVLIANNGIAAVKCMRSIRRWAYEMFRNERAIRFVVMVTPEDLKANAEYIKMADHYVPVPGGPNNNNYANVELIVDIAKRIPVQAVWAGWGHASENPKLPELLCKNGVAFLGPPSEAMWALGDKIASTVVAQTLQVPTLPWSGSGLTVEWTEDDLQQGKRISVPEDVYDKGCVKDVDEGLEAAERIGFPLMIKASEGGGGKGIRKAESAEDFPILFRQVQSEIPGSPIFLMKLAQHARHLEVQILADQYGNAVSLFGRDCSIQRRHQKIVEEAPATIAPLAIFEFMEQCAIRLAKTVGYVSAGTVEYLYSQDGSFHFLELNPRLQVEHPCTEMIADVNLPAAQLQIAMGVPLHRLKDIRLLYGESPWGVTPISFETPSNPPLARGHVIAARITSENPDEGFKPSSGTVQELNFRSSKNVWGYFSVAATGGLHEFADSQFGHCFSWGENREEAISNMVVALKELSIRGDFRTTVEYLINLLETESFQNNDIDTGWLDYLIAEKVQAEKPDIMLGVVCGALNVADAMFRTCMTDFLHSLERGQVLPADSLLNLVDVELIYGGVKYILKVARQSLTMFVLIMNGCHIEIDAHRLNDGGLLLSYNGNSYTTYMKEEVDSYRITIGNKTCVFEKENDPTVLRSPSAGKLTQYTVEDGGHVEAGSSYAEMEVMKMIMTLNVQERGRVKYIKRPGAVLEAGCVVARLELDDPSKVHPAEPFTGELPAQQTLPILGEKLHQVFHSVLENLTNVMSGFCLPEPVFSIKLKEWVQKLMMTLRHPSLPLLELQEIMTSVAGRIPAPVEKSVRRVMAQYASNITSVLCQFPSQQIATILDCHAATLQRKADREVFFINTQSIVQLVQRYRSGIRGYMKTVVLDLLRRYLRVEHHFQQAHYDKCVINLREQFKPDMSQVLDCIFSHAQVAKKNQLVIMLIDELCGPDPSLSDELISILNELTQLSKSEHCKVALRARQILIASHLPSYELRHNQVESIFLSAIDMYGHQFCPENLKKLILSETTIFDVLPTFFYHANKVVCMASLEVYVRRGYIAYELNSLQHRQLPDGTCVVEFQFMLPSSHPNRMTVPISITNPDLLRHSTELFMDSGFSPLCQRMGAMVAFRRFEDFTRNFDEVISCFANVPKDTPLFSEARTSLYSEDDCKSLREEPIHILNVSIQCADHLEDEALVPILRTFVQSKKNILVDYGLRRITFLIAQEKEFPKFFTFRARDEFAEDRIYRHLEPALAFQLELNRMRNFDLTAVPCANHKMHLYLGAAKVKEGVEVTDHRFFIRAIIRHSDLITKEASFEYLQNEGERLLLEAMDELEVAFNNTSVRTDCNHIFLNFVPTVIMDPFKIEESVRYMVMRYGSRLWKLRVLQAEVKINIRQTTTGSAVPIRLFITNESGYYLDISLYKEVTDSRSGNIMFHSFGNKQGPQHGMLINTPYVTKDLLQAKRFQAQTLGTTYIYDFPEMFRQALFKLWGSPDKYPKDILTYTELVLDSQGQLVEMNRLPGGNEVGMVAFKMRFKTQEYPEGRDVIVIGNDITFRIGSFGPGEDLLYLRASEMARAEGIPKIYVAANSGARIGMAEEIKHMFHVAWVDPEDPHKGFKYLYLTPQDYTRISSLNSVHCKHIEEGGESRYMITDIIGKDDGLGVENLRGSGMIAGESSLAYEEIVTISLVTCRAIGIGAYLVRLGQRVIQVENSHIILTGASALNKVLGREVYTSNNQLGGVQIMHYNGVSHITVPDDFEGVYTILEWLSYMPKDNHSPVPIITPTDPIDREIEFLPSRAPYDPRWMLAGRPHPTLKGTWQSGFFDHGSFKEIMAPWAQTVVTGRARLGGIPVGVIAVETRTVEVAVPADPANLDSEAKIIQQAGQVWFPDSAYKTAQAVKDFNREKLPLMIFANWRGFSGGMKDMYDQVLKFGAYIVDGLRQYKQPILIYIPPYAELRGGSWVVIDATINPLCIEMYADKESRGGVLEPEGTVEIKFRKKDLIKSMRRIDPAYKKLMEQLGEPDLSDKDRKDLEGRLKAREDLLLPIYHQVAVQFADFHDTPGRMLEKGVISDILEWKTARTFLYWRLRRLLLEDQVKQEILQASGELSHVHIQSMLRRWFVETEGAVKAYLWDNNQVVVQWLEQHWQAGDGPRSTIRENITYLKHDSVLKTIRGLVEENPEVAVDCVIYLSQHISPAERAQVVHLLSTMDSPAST
compound,measurement,setting,value
O=C(c1c2ccccc2cc2ccccc12)N1CCC(N2CCC[C@@H](C(=O)N3CCOCC3)C2)CC1 [CP-640186],IC50,ACC2,~60 nM
same,IC50,ACC1,~60 nM
"CCOC(=O)c1sc2c(c1C)c(=O)n([C@H](C)C(=O)N(C)C(C)C)c(=O)n2C[C@H](OCCO)c1cc(F)ccc1OC [Compound I-30, ethyl 1-((R)-2-(5-fluoro-2-methoxyphenyl)-2-(2-hydroxy-ethoxy)ethyl)-3-((R)-1-(isopropyl(methyl)amino)-1-oxopropan-2-yl)-5-methyl-2,4-dioxo-1,2,3,4-tetrahydrothieno[2,3-d]pyrimidine-6-carboxylate]",IC50,fACC2; Table 2b (additional results),0.3 to 3 nM
same,IC50,hACC2; Table 2b (additional results),10 to 40 nM
same,MIC,C. albicans ATCC 90028; Table 3b (additional results),1.1 to 2 µg/mL
same,MIC,[1]; Table 3b (additional results),0.25 to 1 µg/mL
same,MIC,C. krusei ATCC 6258; Table 3b (additional results),0.25 to 1 µg/mL
"CCNC(=O)C(C)(C)n1c(=O)c2c(C)c(C(=O)OCC)sc2n(C[C@H](OC2CCOCC2)c2ccccc2OC)c1=O [Compound I-1, ethyl (R)-3-(1-(ethylamino)-2-methyl-1-oxopropan-2-yl)-1-(2-(2-methoxyphenyl)-2-((tetrahydro-2H-pyran-4-yl)oxy)ethyl)-5-methyl-2,4-dioxo-1,2,3,4-tetrahydrothieno[2,3-d]pyrimidine-6-carboxylate]",IC50,fACC2; Table 2a,0.6 to 3 nM
same,IC50,fACC2; Table 2b (additional results),0.3 to 3 nM
same,IC50,hACC2; Table 2a,3 to 10 nM
same,IC50,hACC2; Table 2b (additional results),3 to 10 nM
same,IC90,[2]; Table 4a,≥ 50 µg/mL
same,IC90,[2]; Table 4b,≥ 50 µg/mL
same,MIC,C. albicans ATCC 90028; Table 3a,0.25 to 1 µg/mL
same,MIC,C. albicans ATCC 90028; Table 3b (additional results),0.25 to 1 µg/mL
same,MIC,[1]; Table 3a,1.1 to 2 µg/mL
same,MIC,[1]; Table 3b (additional results),2.1 to 4 µg/mL
same,MIC,C. krusei ATCC 6258; Table 3a,0.25 to 1 µg/mL
same,MIC,C. krusei ATCC 6258; Table 3b (additional results),2.1 to 4 µg/mL
"CCOC(=O)c1sc2c(c1C)c(=O)n(C(C)(C)C(=O)NC(C)C)c(=O)n2CCc1cc(F)ccc1OCCC#N [Compound I-45, ethyl 1-(2-(2-cyanoethoxy)-5-fluorophenethyl)-3-(1-(isopropylamino)-2-methyl-1-oxopropan-2-yl)-5-methyl-2,4-dioxo-1,2,3,4-tetrahydro-thieno[2,3-d]pyrimidine-6-carboxylate]",IC50,fACC2; Table 2b (additional results),3 to 10 nM
same,IC50,hACC2; Table 2b (additional results),≥ 40 nM
same,IC90,[3],2 µg/mL
same,IC90,Rhizoctonia solani (Rs),≥ 50 µg/mL
same,IC90,Diplodia maydis (Dm),≥ 50 µg/mL
same,IC90,[4],≥ 50 µg/mL
same,IC90,Botrtyis cinerea (Bc),10 µg/mL
same,IC90,[5],≥ 50 µg/mL
same,IC90,[2]; Table 4b,2 µg/mL
same,IC90,Septoria tritici (St),≥ 50 µg/mL
